From patent US6737383B1, “Herbicidal oxadiazolidines” (priority 1999, dated 2004)

Legend:
cocklebur = assay: Test B pre/postemergence cocklebur; format: in vivo, Xanthium strumarium
How it was run: (§1)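 Herbicidal effect was estimated by eye on a ten-point control scale after plants spent twelve to sixteen days in a greenhouse following soil or foliar treatment. Foliar sprays targeted plants at one to four leaves; all doses were formulated in a non-phytotoxic solvent with surfactant.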

bedstraw = assay: Test B pre/postemergence bedstraw; format: in vivo, Galium aparine; settings: for Plant response rating, Bedstraw: Postemergence
How it was run: as §1

wheat = assay: Test B pre/postemergence wheat; format: in vivo, Triticum aestivum; settings: for Plant response rating, Wheat: Postemergence
How it was run: as §1

surinam grass = assay: Test B pre/postemergence surinam grass; format: in vivo, Brachiaria decumbens
How it was run: as §1

crabgrass = assay: Test B pre/postemergence crabgrass; format: in vivo, Digitaria sanguinalis
How it was run: as §1

sugar beet = assay: Test B pre/postemergence sugar beet; format: in vivo, Beta vulgaris; settings: for Plant response rating, Sugarbeets: Postemergence
How it was run: as §1

soybean = assay: Test B pre/postemergence soybean; format: in vivo, Glycine max; settings: for Plant response rating, Soybean: Postemergence
How it was run: as §1

purple nutsedge = assay: Test B pre/postemergence purple nutsedge; format: in vivo, Cyperus rotundus
How it was run: as §1

morningglory = assay: Test B pre/postemergence morningglory; format: in vivo, Ipomoea hederacea
How it was run: as §1

velvetleaf = assay: Test B pre/postemergence velvetleaf; format: in vivo, Abutilon theophrasti; settings: for Plant response rating, Velvetleaf: Postemergence
How it was run: as §1

corn = assay: Test B pre/postemergence corn; format: in vivo, Zea mays
How it was run: as §1

wild oat = assay: Test B pre/postemergence wild oat; format: in vivo, Avena fatua; settings: for Plant response rating, Wild oats: Postemergence
How it was run: as §1

giant foxtail = assay: Test B pre/postemergence giant foxtail; format: in vivo, Setaria faberii
How it was run: as §1

rape = assay: Test B pre/postemergence rape; format: in vivo, Brassica napus
How it was run: as §1

pigweed = assay: Test B pre/postemergence pigweed; format: in vivo, Amaranthus retroflexus; settings: for Plant response rating, Redroot pigweed: Postemergence
How it was run: as §1

blackgrass = assay: Test B pre/postemergence blackgrass; format: in vivo, Alopecurus myosuroides
How it was run: as §1

[1] = Postemergence, Rate 62 g/ha, scale of 0 to 10, 0 is no effect, 10 is complete control
[2] = Postemergence, Rate 125 g/ha, scale 0 to 10, 0 is no effect, 10 is complete control
[3] = Postemergence, Rate 500 g/ha, scale of 0 to 10 where 0 is no effect and 10 is complete control
[4] = Preemergence, Rate 62 g/ha, scale 0 to 10 (0 no effect, 10 complete control)
[5] = Preemergence, Rate 125 g/ha, scale 0 to 10, 0 is no effect, 10 is complete control
[6] = Preemergence, Rate 500 g/ha, scale of 0 to 10 where 0 is no effect and 10 is complete control
[7] = Rate 250 g/ha, Postemergence, scale of 0 to 10 where 0 is no effect and 10 is complete control
[8] = Rate 500 g/ha, scale of 0 to 10 where 0 is no effect and 10 is complete control
[9] = Rate 250 g/ha, scale of 0 to 10 where 0 is no effect and 10 is complete control

CC(=O)C(C)n1c(=O)on(C(=O)N(c2ccccc2)C(C)C)c1=O (centres unmarked) [Compound 576]
7: Plant response rating, Giant foxtail (giant foxtail; [7]) | Rape plant response rating (rape; [6]) | Plant response rating, Blackgrass (blackgrass; [3])
4: Crabgrass plant response rating (crabgrass; [5]) | Sugarbeets plant response rating (0 to 10 scale) (sugar beet; Preemergence, Rate 250 g/ha) | Plant response rating, Soybean (soybean; [8]) | Plant response rating, Morningglory (morningglory; [3]) | Plant response rating, Morningglory (morningglory; [7]) | Plant response rating, Corn (corn; [3]) | Giant foxtail plant response rating (giant foxtail; [5]) | Plant response rating, Redroot pigweed (pigweed; [8])
5: Plant response rating, Bedstraw (bedstraw; [9])
3: B. signalgrass plant response rating (surinam grass; [5]) | Crabgrass plant response rating (crabgrass; [2]) | Plant response rating, Soybean (soybean; [9]) | Velvetleaf plant response rating (velvetleaf; [6]) | Wild oats plant response rating (0 to 10 scale) (wild oat; Preemergence, Rate 250 g/ha) | Giant foxtail plant response rating (giant foxtail; [2]) | Blackgrass plant response rating (blackgrass; [5])
8: Wheat plant response rating (0 to 10 scale) (wheat; Preemergence, Rate 250 g/ha) | Wheat plant response rating (wheat; [6]) | Nutsedge plant response rating (purple nutsedge; [6]) | Wild oats plant response rating (wild oat; [6]) | Plant response rating, Giant foxtail (giant foxtail; [3])
9: Plant response rating, Bedstraw (bedstraw; [8]) | B. signalgrass plant response rating (surinam grass; [6]) | Plant response rating, Crabgrass (crabgrass; [3]) | Crabgrass plant response rating (0 to 10 scale) (crabgrass; Preemergence, Rate 250 g/ha) | Crabgrass plant response rating (crabgrass; [6]) | Plant response rating, Crabgrass (crabgrass; [7]) | Giant foxtail plant response rating (0 to 10 scale) (giant foxtail; Preemergence, Rate 250 g/ha) | Giant foxtail plant response rating (giant foxtail; [6]) | Redroot pigweed plant response rating (pigweed; [5]) | Blackgrass plant response rating (blackgrass; [6])
0: Cocklebur plant response rating (cocklebur; [1]) | Cocklebur plant response rating (cocklebur; [2]) | Plant response rating, Cocklebur (cocklebur; [3]) | Cocklebur plant response rating (cocklebur; [4]) | Cocklebur plant response rating (cocklebur; [5]) | Cocklebur plant response rating (0 to 10 scale) (cocklebur; Preemergence, Rate 250 g/ha) | Cocklebur plant response rating (cocklebur; [6]) | Plant response rating, Cocklebur (cocklebur; [7]) | Bedstraw plant response rating (bedstraw; [4]) | Bedstraw plant response rating (bedstraw; [5]) | Bedstraw plant response rating (0 to 10 scale) (bedstraw; Preemergence, Rate 250 g/ha) | Bedstraw plant response rating (bedstraw; [6]) | Plant response rating, Wheat (wheat; [8]) | Wheat plant response rating (wheat; [4]) | Plant response rating, Wheat (wheat; [9]) | B. signalgrass plant response rating (surinam grass; [1]) | B. signalgrass plant response rating (surinam grass; [2]) | B. signalgrass plant response rating (surinam grass; [4]) | Plant response rating, B. signalgrass (surinam grass; [7]) | Crabgrass plant response rating (crabgrass; [4]) | Plant response rating, Sugarbeets (sugar beet; [8]) | Sugarbeets plant response rating (sugar beet; [4]) | Sugarbeets plant response rating (sugar beet; [5]) | Plant response rating, Sugarbeets (sugar beet; [9]) | Soybean plant response rating (soybean; [4]) | Soybean plant response rating (soybean; [5]) | Soybean plant response rating (0 to 10 scale) (soybean; Preemergence, Rate 250 g/ha) | Soybean plant response rating (soybean; [6]) | Nutsedge plant response rating (purple nutsedge; [1]) | Nutsedge plant response rating (purple nutsedge; [2]) | Nutsedge plant response rating (purple nutsedge; [4]) | Nutsedge plant response rating (purple nutsedge; [5]) | Nutsedge plant response rating (0 to 10 scale) (purple nutsedge; Preemergence, Rate 250 g/ha) | Plant response rating, Nutsedge (purple nutsedge; [7]) | Morningglory plant response rating (morningglory; [4]) | Morningglory plant response rating (morningglory; [5]) | Morningglory plant response rating (0 to 10 scale) (morningglory; Preemergence, Rate 250 g/ha) | Morningglory plant response rating (morningglory; [6]) | Plant response rating, Velvetleaf (velvetleaf; [8]) | Velvetleaf plant response rating (velvetleaf; [4]) | Velvetleaf plant response rating (velvetleaf; [5]) | Velvetleaf plant response rating (0 to 10 scale) (velvetleaf; Preemergence, Rate 250 g/ha) | Plant response rating, Velvetleaf (velvetleaf; [9]) | Corn plant response rating (corn; [1]) | Corn plant response rating (corn; [2]) | Corn plant response rating (corn; [4]) | Corn plant response rating (corn; [5]) | Corn plant response rating (0 to 10 scale) (corn; Preemergence, Rate 250 g/ha) | Plant response rating, Wild oats (wild oat; [8]) | Wild oats plant response rating (wild oat; [4]) | Wild oats plant response rating (wild oat; [5]) | Plant response rating, Wild oats (wild oat; [9]) | Rape plant response rating (rape; [1]) | Rape plant response rating (rape; [2]) | Plant response rating, Rape (rape; [3]) | Rape plant response rating (rape; [4]) | Rape plant response rating (rape; [5]) | Plant response rating, Rape (rape; [7]) | Redroot pigweed plant response rating (pigweed; [4]) | Plant response rating, Redroot pigweed (pigweed; [9]) | Blackgrass plant response rating (blackgrass; [1]) | Blackgrass plant response rating (blackgrass; [2]) | Blackgrass plant response rating (blackgrass; [4])
6: Wheat plant response rating (wheat; [5]) | B. signalgrass plant response rating (0 to 10 scale, 0 is no effect, 10 is complete control) (surinam grass; Preemergence, Rate 250 g/ha) | Sugarbeets plant response rating (sugar beet; [6]) | Blackgrass plant response rating (0 to 10 scale) (blackgrass; Preemergence, Rate 250 g/ha)
2: Plant response rating, B. signalgrass (surinam grass; [3]) | Crabgrass plant response rating (crabgrass; [1]) | Morningglory plant response rating (morningglory; [1]) | Morningglory plant response rating (morningglory; [2]) | Corn plant response rating (corn; [6]) | Plant response rating, Corn (corn; [7]) | Giant foxtail plant response rating (giant foxtail; [1]) | Giant foxtail plant response rating (giant foxtail; [4]) | Rape plant response rating (0 to 10 scale) (rape; Preemergence, Rate 250 g/ha) | Plant response rating, Blackgrass (blackgrass; [7])
10: Redroot pigweed plant response rating (0 to 10 scale) (pigweed; Preemergence, Rate 250 g/ha) | Redroot pigweed plant response rating (pigweed; [6])
